Measurements as given in PubChem BioAssay (NCI).
Where “and” joins values, the source holds several entries; their conditions need not be identical. Equal values may be shown once.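 96-well plates; 48 h exposure; 5 concentrations. Endpoints by linear interpolation between flanking doses. Not reached: highest tested concentration assigned. At the GI50, growth is halved. TGI: concentration producing complete growth inhibition.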

What was measured:
Assay in all cases: inhibition of tumour cell growth, NCI panel, 48 h
SN12C renal = test system: SN12C renal
SK-MEL-2 melanoma = test system: SK-MEL-2 melanoma
HOP-62 NSCLC = test system: HOP-62 NSCLC
RXF 393 renal = test system: RXF 393 renal
HT29 colon = test system: HT29 colon
KM12 colon = test system: KM12 colon
HCT-116 colon = test system: HCT-116 colon
CCRF-CEM leukemia = test system: CCRF-CEM leukemia
CAKI-1 renal = test system: CAKI-1 renal
RPMI-8226 leukemia = test system: RPMI-8226 leukemia

`CN1C(=O)N(C)C2C1NN=c1s/c(=C\c3ccc(F)cc3)c(=O)n12` (stereo not given) was tested, and the GI50 (SN12C renal) was 6.97 µM, the TGI (SN12C renal) was > 100 µM and the GI50 (SK-MEL-2 melanoma) was 4.13 µM. The TGI (SK-MEL-2 melanoma) was > 100 µM, the GI50 (HOP-62 NSCLC) was 3.48 µM and the TGI (HOP-62 NSCLC) was > 100 µM. The GI50 (RXF 393 renal) was 0.785 µM, the TGI (RXF 393 renal) was 6 µM and the GI50 (HT29 colon) was 0.951 µM. For the same molecule, the TGI (HT29 colon) was > 100 µM, the GI50 (KM12 colon) was 1.65 µM and the TGI (KM12 colon) was > 100 µM. For the same molecule, the GI50 (HCT-116 colon) was 0.795 µM, the TGI (HCT-116 colon) was > 100 µM and the GI50 (CCRF-CEM leukemia) was 1.91 µM. For the same molecule, the TGI (CCRF-CEM leukemia) was > 100 µM, the GI50 (CAKI-1 renal) was 1.68 µM and the TGI (CAKI-1 renal) was > 100 µM. For the same molecule, the GI50 (RPMI-8226 leukemia) was 2.56 µM and the TGI (RPMI-8226 leukemia) was 8.91 µM.

`O=C(N/N=C(/CCN1CCCC1)CC(c1ccccc1)c1c(O)c2ccccc2oc1=O)c1ccncc1` (stereo not given) was tested, and the TGI (SN12C renal) was > 100 µM, the TGI (SK-MEL-2 melanoma) was > 100 µM and the TGI (HOP-62 NSCLC) was > 100 µM. The TGI (RXF 393 renal) was > 100 µM, the TGI (HT29 colon) was > 100 µM and the TGI (KM12 colon) was > 100 µM. The TGI (HCT-116 colon) was > 100 µM, the TGI (CCRF-CEM leukemia) was > 100 µM and the TGI (CAKI-1 renal) was > 100 µM. For the same molecule, the TGI (RPMI-8226 leukemia) was > 100 µM.

`COc1ccc2c(c1)/C(=C\c1c(Cl)[nH]c3ccc(OC)cc13)C(=O)N2` gave a GI50 (SK-MEL-2 melanoma) of 25.8 µM, a TGI (SK-MEL-2 melanoma) of 62.8 µM and a GI50 (HOP-62 NSCLC) of 32.6 µM. For the same molecule, the TGI (HOP-62 NSCLC) was 95.2 µM, the GI50 (RXF 393 renal) was > 100 µM and the TGI (RXF 393 renal) was > 100 µM. The GI50 (HT29 colon) was 21.4 µM, the TGI (HT29 colon) was > 100 µM and the GI50 (KM12 colon) was 17.5 µM. For the same molecule, the TGI (KM12 colon) was 34.9 µM, the GI50 (HCT-116 colon) was 16.3 µM and the TGI (HCT-116 colon) was 30.6 µM. The GI50 (CCRF-CEM leukemia) was 32.5 µM, the TGI (CCRF-CEM leukemia) was > 100 µM and the GI50 (CAKI-1 renal) was > 100 µM. The TGI (CAKI-1 renal) was > 100 µM, the GI50 (RPMI-8226 leukemia) was 33.3 µM and the TGI (RPMI-8226 leukemia) was > 100 µM.

For `CC(=O)NC(CCCCNC(=O)NCCCl)C(=O)NCc1ccccc1` (stereo not given), the TGI (SN12C renal) was > 100 µM, the TGI (SK-MEL-2 melanoma) was > 100 µM and the TGI (HOP-62 NSCLC) was > 100 µM. For the same molecule, the TGI (RXF 393 renal) was > 100 µM, the TGI (HT29 colon) was > 100 µM and the TGI (KM12 colon) was > 100 µM. For the same molecule, the TGI (HCT-116 colon) was > 100 µM, the TGI (CCRF-CEM leukemia) was > 100 µM and the TGI (CAKI-1 renal) was > 100 µM. The TGI (RPMI-8226 leukemia) was > 100 µM.

`C/C(CCc1ccccc1)=N\NC(N)=S` was tested, and the TGI (SN12C renal) was > 100 µM, the TGI (SK-MEL-2 melanoma) was > 100 µM and the TGI (HOP-62 NSCLC) was > 100 µM. The TGI (RXF 393 renal) was > 100 µM, the TGI (HT29 colon) was > 100 µM and the TGI (KM12 colon) was > 100 µM. The TGI (HCT-116 colon) was > 100 µM, the TGI (CCRF-CEM leukemia) was > 100 µM and the TGI (CAKI-1 renal) was > 100 µM. The TGI (RPMI-8226 leukemia) was > 100 µM.

With `N#CCCN(CCC#N)c1ccc(C(Sc2ccccc2)C(NC(=O)c2cc([N+](=O)[O-])ccc2Cl)C(=O)Sc2ccccc2)cc1` (stereo not given) the TGI (SN12C renal) was 4.54 µM and 6.19 µM, the TGI (SK-MEL-2 melanoma) was 4.64 µM and the GI50 (HOP-62 NSCLC) was 3.87 µM. The TGI (HOP-62 NSCLC) was 12 µM, the GI50 (RXF 393 renal) was 0.415 µM and the TGI (RXF 393 renal) was 5.81 µM and 3.28 µM. The GI50 (HT29 colon) was 2.59 µM, the TGI (HT29 colon) was 7.58 µM and the GI50 (HCT-116 colon) was 1.85 µM. The TGI (HCT-116 colon) was 5.51 µM and 5.62 µM, the TGI (CCRF-CEM leukemia) was 0.765 µM and 0.479 µM and the TGI (CAKI-1 renal) was 5.71 µM and 6.5 µM. It also gave a TGI (RPMI-8226 leukemia) of 5.66 µM.

With `CCOc1cccc(/C=N/NC(=O)C(=O)Nc2cccc(C(F)(F)F)c2)c1O` the GI50 (SN12C renal) was 2.66 µM, the TGI (SN12C renal) was > 100 µM and the GI50 (SK-MEL-2 melanoma) was 5.3 µM. The TGI (SK-MEL-2 melanoma) was > 100 µM, the GI50 (HOP-62 NSCLC) was 3.1 µM and the TGI (HOP-62 NSCLC) was 53.6 µM. For the same molecule, the GI50 (RXF 393 renal) was 4.07 µM, the TGI (RXF 393 renal) was 55.1 µM and the GI50 (HT29 colon) was 6.51 µM. The TGI (HT29 colon) was > 100 µM, the GI50 (KM12 colon) was 3 µM and the TGI (KM12 colon) was > 100 µM. The GI50 (HCT-116 colon) was 1.02 µM, the TGI (HCT-116 colon) was > 100 µM and the GI50 (CCRF-CEM leukemia) was 0.322 µM. For the same molecule, the TGI (CCRF-CEM leukemia) was 7.41 µM, the GI50 (CAKI-1 renal) was 0.528 µM and the TGI (CAKI-1 renal) was 6.49 µM. The GI50 (RPMI-8226 leukemia) was 2.08 µM and the TGI (RPMI-8226 leukemia) was > 100 µM.

With `C=CC(=O)Nc1cc2c(Nc3ccc(F)c(Cl)c3)ncnc2cc1OCCCN1CCOCC1` the GI50 (SN12C renal) was 0.805 µM and 1.59 µM, the TGI (SN12C renal) was 6.8 µM and > 10 µM and the GI50 (SK-MEL-2 melanoma) was 1.96 µM and 2.17 µM. For the same molecule, the TGI (SK-MEL-2 melanoma) was 3.79 µM and > 6.51 µM, the GI50 (HOP-62 NSCLC) was 3.27 µM and > 5.63 µM and the TGI (HOP-62 NSCLC) was 13.9 µM and > 10 µM. For the same molecule, the GI50 (RXF 393 renal) was 1.32 µM and 1.88 µM, the TGI (RXF 393 renal) was 2.82 µM and 6.23 µM and the GI50 (HT29 colon) was 1.64 µM and 2.26 µM. For the same molecule, the TGI (HT29 colon) was 3.48 µM and > 8.38 µM, the GI50 (KM12 colon) was 3.18 µM and 5.3 µM and the TGI (KM12 colon) was 11.9 µM and > 10 µM. The GI50 (HCT-116 colon) was 1.58 µM and 2.35 µM, the TGI (HCT-116 colon) was 3 µM and > 5.9 µM and the GI50 (CCRF-CEM leukemia) was 2.19 µM and 2.63 µM. For the same molecule, the TGI (CCRF-CEM leukemia) was > 27.4 µM, the TGI (CAKI-1 renal) was 2.67 µM and > 10 µM and the GI50 (RPMI-8226 leukemia) was 1.94 µM and 2.75 µM. For the same molecule, the TGI (RPMI-8226 leukemia) was 5.17 µM and > 10 µM.
